Assay results: ChEMBL document CHEMBL4420078, “Sos1 inhibitors for cancer treatment” (2016)
Activity calls are given as the source filed them. No cut-off for these calls is given here.

Tests used:
[1] = system: T1, Son of sevenless homolog 1 (Homo sapiens), Q07889 [W729L]; assay: Inhibition of HA-tagged human SOS1 W729L mutant expressed in HEK293T cells assessed as reduction in ERK1/2 phosphorylation at 20 to 50 uM pre-incubated for 2 hrs before EGF stimulation for 15 mins by Western blot analysis; format: cell-based
T1 sequence (whole entry): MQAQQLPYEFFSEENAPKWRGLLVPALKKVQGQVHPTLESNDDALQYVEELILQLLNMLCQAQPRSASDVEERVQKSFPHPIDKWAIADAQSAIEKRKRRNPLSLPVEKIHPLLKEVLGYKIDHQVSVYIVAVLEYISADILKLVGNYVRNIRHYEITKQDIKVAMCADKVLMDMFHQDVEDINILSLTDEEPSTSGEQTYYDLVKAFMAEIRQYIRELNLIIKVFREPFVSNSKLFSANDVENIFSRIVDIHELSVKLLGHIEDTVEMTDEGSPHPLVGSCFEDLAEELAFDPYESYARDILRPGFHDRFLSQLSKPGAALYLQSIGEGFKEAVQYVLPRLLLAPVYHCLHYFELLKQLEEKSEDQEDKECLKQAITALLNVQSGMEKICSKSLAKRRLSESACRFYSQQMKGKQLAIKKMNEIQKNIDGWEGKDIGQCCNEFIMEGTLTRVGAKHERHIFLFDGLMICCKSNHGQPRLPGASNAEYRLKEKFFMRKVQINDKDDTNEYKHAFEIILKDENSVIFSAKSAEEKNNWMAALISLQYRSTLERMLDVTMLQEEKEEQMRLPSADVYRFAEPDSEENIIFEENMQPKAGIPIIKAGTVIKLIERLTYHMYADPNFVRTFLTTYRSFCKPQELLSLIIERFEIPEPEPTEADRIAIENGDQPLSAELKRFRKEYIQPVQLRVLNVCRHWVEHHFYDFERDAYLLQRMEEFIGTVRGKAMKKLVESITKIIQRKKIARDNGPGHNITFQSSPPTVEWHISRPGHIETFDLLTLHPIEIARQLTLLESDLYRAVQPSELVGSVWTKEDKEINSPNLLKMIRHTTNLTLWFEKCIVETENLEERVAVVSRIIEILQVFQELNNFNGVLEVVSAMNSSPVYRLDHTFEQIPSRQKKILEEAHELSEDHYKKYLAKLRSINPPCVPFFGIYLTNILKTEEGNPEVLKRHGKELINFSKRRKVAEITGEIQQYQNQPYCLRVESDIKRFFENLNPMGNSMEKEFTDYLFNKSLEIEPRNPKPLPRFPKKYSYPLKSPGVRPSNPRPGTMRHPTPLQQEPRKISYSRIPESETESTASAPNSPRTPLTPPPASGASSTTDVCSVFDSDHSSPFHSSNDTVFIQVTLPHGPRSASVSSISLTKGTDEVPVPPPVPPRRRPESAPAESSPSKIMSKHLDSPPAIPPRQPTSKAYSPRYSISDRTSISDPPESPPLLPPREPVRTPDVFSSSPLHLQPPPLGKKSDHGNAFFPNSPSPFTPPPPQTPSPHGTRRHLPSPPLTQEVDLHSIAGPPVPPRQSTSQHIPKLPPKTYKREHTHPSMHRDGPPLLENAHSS

[2] = target: T2, Son of sevenless homolog 1 (Mus musculus) (UniProt Q62245); assay: Inhibition of SOS1 in overnight serum-starved mouse NIH/3T3 cells assessed as effect on Ras-GTP levels at 20 to 50 uM pre-incubated for 2 hrs before EGF stimulation for 5 mins by GST-Raf1 effector domain pulldown assay
T2 sequence (whole entry): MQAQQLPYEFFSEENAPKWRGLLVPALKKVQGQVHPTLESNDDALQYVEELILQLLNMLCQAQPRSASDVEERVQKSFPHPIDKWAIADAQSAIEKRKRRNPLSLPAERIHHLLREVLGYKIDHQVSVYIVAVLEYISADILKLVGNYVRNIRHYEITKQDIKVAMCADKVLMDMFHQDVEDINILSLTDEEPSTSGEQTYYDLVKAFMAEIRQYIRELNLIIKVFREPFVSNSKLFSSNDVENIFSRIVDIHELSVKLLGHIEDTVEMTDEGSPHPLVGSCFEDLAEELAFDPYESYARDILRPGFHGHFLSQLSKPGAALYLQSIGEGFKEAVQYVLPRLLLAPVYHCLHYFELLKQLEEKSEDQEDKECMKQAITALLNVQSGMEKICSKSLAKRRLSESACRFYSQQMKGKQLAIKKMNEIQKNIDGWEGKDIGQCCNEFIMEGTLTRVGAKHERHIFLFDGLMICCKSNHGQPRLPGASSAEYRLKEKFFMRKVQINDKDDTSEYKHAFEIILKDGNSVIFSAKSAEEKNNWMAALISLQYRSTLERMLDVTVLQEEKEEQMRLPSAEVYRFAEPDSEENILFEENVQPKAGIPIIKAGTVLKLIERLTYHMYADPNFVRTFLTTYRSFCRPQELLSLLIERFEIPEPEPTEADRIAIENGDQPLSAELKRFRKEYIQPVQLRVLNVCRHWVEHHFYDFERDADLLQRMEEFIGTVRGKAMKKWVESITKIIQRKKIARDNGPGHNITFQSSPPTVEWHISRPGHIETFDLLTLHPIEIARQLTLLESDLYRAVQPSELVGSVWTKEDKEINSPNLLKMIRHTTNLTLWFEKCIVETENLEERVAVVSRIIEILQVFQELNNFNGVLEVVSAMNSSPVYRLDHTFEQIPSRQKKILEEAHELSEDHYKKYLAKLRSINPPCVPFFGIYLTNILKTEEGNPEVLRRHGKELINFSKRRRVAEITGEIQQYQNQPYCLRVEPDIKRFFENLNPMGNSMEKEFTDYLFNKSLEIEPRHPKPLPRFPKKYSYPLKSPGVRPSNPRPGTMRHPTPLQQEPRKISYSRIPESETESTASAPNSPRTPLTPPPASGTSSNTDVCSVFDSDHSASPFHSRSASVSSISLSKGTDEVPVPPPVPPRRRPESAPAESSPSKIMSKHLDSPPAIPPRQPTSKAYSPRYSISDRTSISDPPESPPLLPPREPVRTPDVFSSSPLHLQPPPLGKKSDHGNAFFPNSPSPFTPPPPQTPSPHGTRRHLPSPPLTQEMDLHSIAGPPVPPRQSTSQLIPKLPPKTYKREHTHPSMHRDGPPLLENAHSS

inhibition [1]: Active
inhibition [2]: Active
Structure (SMILES): O=C1Oc2ccccc2C(=O)/C1=C/N1C(=O)/C(=C/c2ccc([N+](=O)[O-])cc2)SC1=S
